Inconclusive results and toxic doses are left out. Rule as the data show it: active = T/C of 150% or more; inactive = T/C below 125%.
System: L1210 leukemia ip in BDF1 mice, survival T/C
Test: NCI In Vivo Anticancer Drug Screen. Data for tumor model L1210 Leukemia (intraperitoneal) in B6D2F1 (BDF1) mice
Conditions: endpoint: mean survival time, higher = longer survival
Outline: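 Value reflects the ratio of survival in compound-treated mice to survival in vehicle-treated controls, with both groups carrying the same transplanted tumor.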

[1] = dose: 100.0 mg/kg/injection, schedule: Q01DX009 (ip), vehicle: saline with Tween-80
[2] = dose: 200.0 mg/kg/injection, schedule: Q01DX009 (ip), vehicle: saline with Tween-80
[3] = dose: 100.0 mg/kg/injection, schedule: Q04DX003 (ip), vehicle: saline
[4] = dose: 200.0 mg/kg/injection, schedule: Q04DX003 (ip), vehicle: saline
[5] = dose: 100.0 mg/kg/injection, schedule: Q01DX001 (ip), vehicle: saline
[6] = dose: 200.0 mg/kg/injection, schedule: Q01DX001 (ip), vehicle: saline
[7] = dose: 400.0 mg/kg/injection, schedule: Q01DX001 (ip), vehicle: saline
[8] = dose: 12.5 mg/kg/injection, schedule: Q04DX003 (ip), vehicle: Klucel (hydroxypropylcellulose) (HPC)
[9] = dose: 100.0 mg/kg/injection, schedule: Q01DX009 (ip), vehicle: Klucel (hydroxypropylcellulose) (HPC)

Measured: T/C

O=C(CNC(=O)Nc1ccc(Cl)c(Cl)c1)N/N=C/c1ccc(F)cc1
inactive: [1] 98 % of control | [2] 96 % of control | dose: 400.0 mg/kg/injection, schedule: Q01DX009 (ip), vehicle: saline with Tween-80 98 % of control

CCCP(CCC)N(CC)CC
inactive: [3] 107 % of control | [4] 101 % of control | dose: 400.0 mg/kg/injection, schedule: Q04DX003 (ip), vehicle: saline 104 % of control

CNC(=O)C(c1ccccc1)C(F)(F)F (stereo not drawn)
inactive: dose: 100.0 mg/kg/injection, schedule: Q01DX001 (ip), vehicle: saline with Tween-80 97 % of control | dose: 200.0 mg/kg/injection, schedule: Q01DX001 (ip), vehicle: saline with Tween-80 109 % of control | dose: 400.0 mg/kg/injection, schedule: Q01DX001 (ip), vehicle: saline with Tween-80 105 % of control

C/C(=N/Nc1c(F)c(F)c(-c2c(F)c(F)c(N/N=C(\C)c3ccccc3)c(F)c2F)c(F)c1F)c1ccccc1
inactive: dose: 25.6 mg/kg/injection, schedule: Q04DX002 (ip), vehicle: saline with Tween-80 95 % of control | dose: 64.0 mg/kg/injection, schedule: Q04DX002 (ip), vehicle: saline with Tween-80 92 % of control | dose: 160.0 mg/kg/injection, schedule: Q04DX002 (ip), vehicle: saline with Tween-80 89 % of control | dose: 400.0 mg/kg/injection, schedule: Q04DX002 (ip), vehicle: saline with Tween-80 92 % of control

C(=N\N1CCN(/N=C/c2ccc(-c3ccccc3)cc2)CC1)/c1ccc(-c2ccccc2)cc1
inactive: [5] 94 % of control | [6] 97 % of control | [7] 94 % of control

CCOC(=O)c1c[nH]c2nc(N)ccc2c1=O
inactive: dose: 50.0 mg/kg/injection, schedule: Q01DX001 (ip), vehicle: saline 104 % of control | [5] 106 % of control | [6] 106 % of control | [7] 101 % of control

NC(=O)C1C(=O)OC2(CCCCC2)C1c1ccccc1 (stereo not drawn)
inactive: [5] 89 % of control | [6] 87 % of control | [7] 94 % of control

Oc1ccccc1C=NCCCN1CC1.[Ni+2].[O-]c1ccccc1C=NCCCN1CC1
inactive: dose: 100.0 mg/kg/injection, schedule: Q01DX001 (ip), vehicle: Klucel (hydroxypropylcellulose) (HPC) 114 % of control | dose: 200.0 mg/kg/injection, schedule: Q01DX001 (ip), vehicle: Klucel (hydroxypropylcellulose) (HPC) 87 % of control | dose: 400.0 mg/kg/injection, schedule: Q01DX001 (ip), vehicle: Klucel (hydroxypropylcellulose) (HPC) 104 % of control

O=[N+]([O-])c1ccc(N/N=C(\c2ccccc2)c2ccc(O)cc2O)c([N+](=O)[O-])c1
inactive: dose: 100.0 mg/kg/injection, schedule: Q01DX001 (ip), vehicle: other 91 % of control | dose: 100.0 mg/kg/injection, schedule: Q04DX003 (ip), vehicle: other 95 % of control | dose: 200.0 mg/kg/injection, schedule: Q01DX001 (ip), vehicle: other 91 % of control | dose: 200.0 mg/kg/injection, schedule: Q04DX003 (ip), vehicle: other 96 % of control | dose: 400.0 mg/kg/injection, schedule: Q01DX001 (ip), vehicle: other 95 % of control | dose: 400.0 mg/kg/injection, schedule: Q04DX003 (ip), vehicle: other 96 % of control

CCN(CC)CCN=Cc1ccccc1OC
inactive: [5] 98 % of control | [6] 101 % of control

O=C(O)c1ccc(CCCCCCl)cc1
inactive: [1] 103 % of control | [2] 111 % of control

CC(=O)Nc1c(Br)cc2c(c1Br)C(=O)c1ccccc1-2
inactive: dose: 100.0 mg/kg/injection, schedule: Q01DX001 (ip), vehicle: carboxymethylcellulose (CMC) 97 % of control | dose: 200.0 mg/kg/injection, schedule: Q01DX001 (ip), vehicle: carboxymethylcellulose (CMC) 87 % of control | dose: 400.0 mg/kg/injection, schedule: Q01DX001 (ip), vehicle: carboxymethylcellulose (CMC) 97 % of control

CCCCSCCOC(=O)C1C2CCC(O2)C1C(=O)O (stereo not drawn)
inactive: [8] 95 % of control | dose: 25.0 mg/kg/injection, schedule: Q04DX003 (ip), vehicle: Klucel (hydroxypropylcellulose) (HPC) 96 % of control

CC(CC(=O)c1ccccc1)C(C(=O)c1ccccc1)c1ccccc1 (stereo not drawn)
inactive: dose: 50.0 mg/kg/injection, schedule: Q01DX009 (ip), vehicle: other 101 % of control | dose: 100.0 mg/kg/injection, schedule: Q01DX009 (ip), vehicle: other 101 % of control | dose: 200.0 mg/kg/injection, schedule: Q01DX009 (ip), vehicle: other 101 % of control

ClC1=C(Cl)C(Cl)(Cl)C(Cl)=C1Cl
inactive: dose: 0.25 mg/kg/injection, schedule: Q04DX002 (ip), vehicle: Klucel (hydroxypropylcellulose) (HPC) 103 % of control | dose: 0.5 mg/kg/injection, schedule: Q04DX002 (ip), vehicle: Klucel (hydroxypropylcellulose) (HPC) 107 % of control | dose: 1.0 mg/kg/injection, schedule: Q04DX002 (ip), vehicle: Klucel (hydroxypropylcellulose) (HPC) 88 % of control

CC(C)C(C#N)(CCN1CCCCC1)c1cccc2ccccc12 (stereo not drawn)
inactive: [9] 92 % of control

COC1(c2ccccc2)OC(C(C)(C)C)=NC1(C)C (stereo not drawn)
inactive: dose: 100.0 mg/kg/injection, schedule: Q04DX003 (ip), vehicle: saline with Tween-80 92 % of control | dose: 200.0 mg/kg/injection, schedule: Q04DX003 (ip), vehicle: saline with Tween-80 108 % of control

O=c1cc(-c2ccccc2)oc2ccccc12
inactive: [9] 97 % of control | dose: 200.0 mg/kg/injection, schedule: Q01DX009 (ip), vehicle: Klucel (hydroxypropylcellulose) (HPC) 92 % of control | dose: 400.0 mg/kg/injection, schedule: Q01DX009 (ip), vehicle: Klucel (hydroxypropylcellulose) (HPC) 108 % of control

CSC(N)=Nc1c(C)cccc1C
inactive: dose: 50.0 mg/kg/injection, schedule: Q04DX003 (ip), vehicle: saline 102 % of control | [5] 98 % of control | [3] 106 % of control | [6] 100 % of control | [4] 101 % of control

C=CCNC(=S)NN
inactive: dose: 6.25 mg/kg/injection, schedule: Q04DX003 (ip), vehicle: Klucel (hydroxypropylcellulose) (HPC) 115 % of control | [8] 95 % of control

O=C1Nc2ccccc2C(=O)Nc2ccccc21
inactive: dose: 100.0 mg/kg/injection, schedule: Q04DX003 (ip), vehicle: acetone 98 % of control | dose: 200.0 mg/kg/injection, schedule: Q04DX003 (ip), vehicle: acetone 93 % of control | dose: 400.0 mg/kg/injection, schedule: Q04DX003 (ip), vehicle: acetone 101 % of control

— PubChem BioAssay AID248 (DTP/NCI, 2004)
